Data published in ChEMBL document CHEMBL1123343, “5-(Halomethyl)-2-pyranones as irreversible inhibitors of alpha-chymotrypsin” (J Med Chem, 1986).

Legend:
[1] = target: T1, Chymotrypsin-C (Homo sapiens) (UniProt Q99895)
T1 sequence (whole entry): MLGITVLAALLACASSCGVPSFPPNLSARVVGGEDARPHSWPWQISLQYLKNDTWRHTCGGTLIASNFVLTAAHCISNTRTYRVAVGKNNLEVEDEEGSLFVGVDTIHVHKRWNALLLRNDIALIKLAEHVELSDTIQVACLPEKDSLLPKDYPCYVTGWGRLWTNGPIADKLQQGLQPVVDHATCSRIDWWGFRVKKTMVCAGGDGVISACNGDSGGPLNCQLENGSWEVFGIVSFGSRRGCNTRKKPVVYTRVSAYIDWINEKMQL
Description: Inactivation rate constant (kinact) was determined by exposing Chymotrypsinogen to different concentrations of the purine and periodically diluting aliquots into an assay medium containing one of the chromogenic substrates; NI=No inactivation

[2] = target: T2, Chymotrypsin-C (Homo sapiens, UniProt Q99895); test: Compound was tested for inhibition against alpha-chymotrypsin using N-acetyl tyrosine p-nitrophenyl ester; WI=Weak inhibition
T2 sequence (Q99895 whole entry): T1 sequence (whole entry)

[3] = target: T1, Chymotrypsin-C (Homo sapiens); test: Inactivation efficiency (I/E) was determined by incubating different ratios of pyrone and […] for 18 hr and then assaying the surviving enzyme activity; NI=No inactivation
[4] = target: T1, Chymotrypsin-C (Homo sapiens); test: Inactivation rate constant (kinact) was determined by exposing chymotrypsin to different concentrations of the […] and periodically diluting aliquots into an assay medium containing one of the […]
[5] = target: T1, Chymotrypsin-C (Homo sapiens); remark: listed apart in the source
Description: Inactivation efficiency (I/E) was determined by incubating different ratios of pyrone and chymotrypsin for 18 h and then assaying the surviving Chymotrypsinogen enzyme activity

[6] = target: T1, Chymotrypsin-C (Homo sapiens); remark: listed apart in the source
Description: Inactivation efficiency (I/E) was determined by incubating different ratios of pyrone and chymotrypsin for 18 hr and then assaying the surviving enzyme activity; NI=No inactivation

| Compound | K inact [1] | Ki [2] | I/E [3] | K inact [4] | I/E [5] | I/E [6] |
| --- | --- | --- | --- | --- | --- | --- |
| Cc1oc(=O)c(Cc2cccc3ccccc23)cc1CCl | No inactivation | Weak inhibition | No inactivation |  |  |  |
| O=c1occ(CCl)cc1Cc1cccc2ccccc12 |  | Weak inhibition |  | 0.085 min⁻¹ | 1.38 |  |
| O=c1occ(CCl)cc1CCl | No inactivation | Weak inhibition |  |  |  | No inactivation |
